Assay results published in patent US20240010658A1, “ABHD6 ANTAGONIST” (ONO PHARMACEUTICAL CO., LTD., priority 2021, published 2024).

Tests used:
[1] = molecular target: recombinant human ABHD6 (33-337) (Homo sapiens (Human), UniProt Q9BV23); assay: Evaluation of ABHD6 enzyme inhibitory activity (arachidonic acid production from 1-arachidonoyl glycerol, RapidFire-MS); format: biochemical; conditions: inhibition of arachidonic acid production, 10 μmol/L 1-arachidonoyl glycerol, 1 hour, room temperature
recombinant human ABHD6 (33-337), sequence (Q9BV23 33-337): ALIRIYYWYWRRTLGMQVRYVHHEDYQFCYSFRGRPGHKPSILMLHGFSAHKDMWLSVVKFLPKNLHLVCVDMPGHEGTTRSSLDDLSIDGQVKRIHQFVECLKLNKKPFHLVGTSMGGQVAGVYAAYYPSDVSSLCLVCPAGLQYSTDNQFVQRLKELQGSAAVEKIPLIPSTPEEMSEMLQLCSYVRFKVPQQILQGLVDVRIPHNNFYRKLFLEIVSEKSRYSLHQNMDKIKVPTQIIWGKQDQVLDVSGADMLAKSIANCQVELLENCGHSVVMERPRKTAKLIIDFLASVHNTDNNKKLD
Protocol: The recombinant human ABHD6 (33-337) was a GST-tagged ABHD6, and one which was expressed in E. coli, then purified with a Glutathione-Sepharose 4B resin, and then concentrated was used. The enzyme reaction was carried out at room temperature using a 384-well microplate made of polypropylene, and wells to which no enzyme was added were designated as a blank group.
One hour after the start of the enzyme reaction, methanol containing, as an internal standard substance, arachidonic acid-d8 (Cayman Chemical) and 1% formic acid was added to stop enzymatic reaction. The upper part of the enzyme reaction plate was sealed with aluminum, and centrifugation was performed at 560 g for 5 minutes at room temperature. Then, arachidonic acid as an enzyme reaction product and arachidonic acid-ds as the internal standard substance were quantified with RapidFire (registered trademark)-Mass Spectrometry system.

human ABHD6 = human ABHD6 (Homo sapiens (Human), UniProt Q9BV23); assay: Measurement of binding affinity for human ABHD6 (BRET, HEK293 cells expressing NanoLuc-human ABHD6 fusion protein); conditions: BRET competition with fluorescent probe molecule 100 nmol/L in HEK293 cells expressing NanoLuc-human ABHD6
human ABHD6, sequence (Q9BV23 whole entry, the tested form may be a part): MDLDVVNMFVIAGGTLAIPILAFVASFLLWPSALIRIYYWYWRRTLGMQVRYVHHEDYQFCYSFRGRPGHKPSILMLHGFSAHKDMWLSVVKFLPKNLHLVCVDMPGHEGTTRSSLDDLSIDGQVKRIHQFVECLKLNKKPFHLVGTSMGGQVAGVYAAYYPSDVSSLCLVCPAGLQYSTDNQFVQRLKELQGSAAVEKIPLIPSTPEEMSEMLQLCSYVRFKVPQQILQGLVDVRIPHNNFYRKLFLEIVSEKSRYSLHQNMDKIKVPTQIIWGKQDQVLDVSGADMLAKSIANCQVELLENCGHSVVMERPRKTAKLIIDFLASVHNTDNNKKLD
Protocol: The binding affinity of the test compound for human ABHD6 was measured using bioluminescence resonance energy transfer (hereinafter, abbreviated as BRET) as an index. The bioluminescence resonance energy transfer is induced by the proximity of a probe molecule and a NanoLuc-human ABHD6 fusion protein, which is caused by allowing a fluorescent probe molecule and a test compound to act in a competitive manner using HEK293 cells forcibly expressing the NanoLuc-human ABHD6 fusion protein.
The test compound and the compound described in Example 2 as a control substance were each dissolved in dimethyl sulfoxide (DMSO) to prepare a 10 mmol/L solution. The prepared 10 mmol/L solution was thawed at the time of use, serially diluted with DMSO, and subjected to an experiment.
HEK293 cells expressing a NanoLuc-human ABHD6 fusion protein were statically cultured at 37° C. in the presence of 5% CO2 using inactivated (56° C., 30 min) 9.8 vol % non-dialyzed-FBS (containing 0.5 vol % GENETICIN and 1% penicillin-streptomycin). The subculture was performed by the following method.
The culture medium was removed, and the cells were washed once with phosphate buffered saline without Ca^2+ and Mg^2+. An appropriate amount of trypsin-EDTA was added, and the cells were incubated at room temperature. After the cells were detached, a culture medium in a volume 10-fold the volume of trypsin-EDTA (0.05%) was added to stop an enzyme reaction. The cells were collected in a centrifuge tube, and centrifuged at room temperature for 3 minutes at 120 g, and the supernatant was removed. The cells were suspended in an appropriate amount of culture medium and seeded in a culture flask.
HEK293 cells expressing a NanoLuc-human ABHD6 fusion protein were prepared, and then cryopreserved so as to be 5.0×10^6 cells/mL/vial in CELLBANKER2, and the cells were subjected to an experiment. HBSS (+) containing 20 mmol/L HEPES (pH 7.3) and 0.1% BSA was prepared and used as an assay buffer. The cells were thawed and suspended in the assay buffer to prepare a cell suspension of 2×10^5 cells/mL. […] The plate was allowed to stand at 37° C. for 30 minutes in the presence of 5% CO2. Then, a probe molecule (10 mmol/L in DMSO) having a fluorophore was diluted with the assay buffer so as to have a final concentration of 100 nmol/L, and added to the assay plate in an amount of 15 μL each. Further, this was allowed to stand at 37° C. for 30 minutes in the presence of 5% CO2. Then, a Nano-Glo (registered trademark) Vivazine (trademark) substrate (Promega Corporation) was diluted with the assay buffer according to the method described in the protocol, and added to the assay plate in an amount of 10 μL each, and this was allowed to stand at room temperature for 1 hour. Thereafter, the luminescence and fluorescence intensity were measured using a GloMax (registered trademark) discover system. The ratio between the emission intensity through the 450 nm bandpass filter and the fluorescence intensity through the 600 nm longpass filter was defined as the measured value of each sample. The measured value of the group containing the control substance at a final concentration of 30 μmol/L was defined as 100% inhibition. The measured value of the group not containing the compound was defined as 0% inhibition. The IC50 value of the test compound was determined from the measured value at each test compound concentration.

IC50 [1] | IC50 (human ABHD6) | Compound
1 nM | 11 nM | O=C(c1ccc(C(F)F)s1)N1C[C@@H]2CC[C@@H](Nc3ccc(Cl)nn3)[C@@H]2C1 [Example 1, {(3aS,4R,6aR)-4-[(6-Chloro-3-pyridazinyl)amino]hexahydrocyclopenta[c]pyrrol-2(1H)-yl}[5-(difluoromethyl)-2-thienyl]methanone]
1 nM | 3 nM | Cc1ccc(C(=O)N2C[C@@H]3CC[C@@H](Nc4ccc(I)nn4)[C@@H]3C2)s1 [Example 5, [(3aS,4R,6aR)-4-[(6-Iodo-3-pyridazinyl)amino]hexahydrocyclopenta[c]pyrrol-2(1H)-yl](5-methyl-2-thienyl)methanone]
2 nM | 16 nM | O=C(C1CC2CCC1CC2)N1C[C@@H]2CC[C@@H](Nc3ccc(Br)nn3)[C@@H]2C1 (stereo partly drawn) [Example 2-14, Bicyclo[2.2.2]oct-2-yl[(3aS,4R,6aR)-4-[(6-bromo-3-pyridazinyl)amino]hexahydrocyclopenta[c]pyrrol-2(1H)-yl]methanone]
1 nM | 5 nM | Cn1cc2sc(C(=O)N3C[C@@H]4CC[C@@H](Nc5ccc(Br)nn5)[C@@H]4C3)cc2n1 [Example 3-9, [(3aS,4R,6aR)-4-[(6-Bromo-3-pyridazinyl)amino]hexahydrocyclopenta[c]pyrrol-2(1H)-yl](2-methyl-2H-thieno[3,2-c]pyrazol-5-yl)methanone]
5 nM | 62 nM | CN1C(=O)CCc2sc(C(=O)N3C[C@@H]4CC[C@@H](Nc5ccc(Br)nn5)[C@@H]4C3)cc21 [Example 3, 2-{[(3aS,4R,6aR)-4-[(6-Bromo-3-pyridazinyl)amino]hexahydrocyclopenta[c]pyrrol-2(1H)-yl]carbonyl}-4-methyl-6,7-dihydrothieno[3,2-b]pyridin-5(4H)-one]
< 1 nM | 1 nM | Cc1ccc(C(=O)N2C[C@@H]3CC[C@@H](Nc4ccc(Br)nn4)[C@@H]3C2)s1 [Example 2, [(3aS,4R,6aR)-4-[(6-Bromo-3-pyridazinyl)amino]hexahydrocyclopenta[c]pyrrol-2(1H)-yl](5-methyl-2-thienyl)methanone]
1 nM | 4 nM | O=C(c1cc2c(s1)CCOC2)N1C[C@H]2[C@H](Nc3ccc(Br)nn3)CC(F)(F)[C@H]2C1 [Example 16, [(3aR,6R,6aS)-6-[(6-Bromo-3-pyridazinyl)amino]-4,4-difluorohexahydrocyclopenta[c]pyrrol-2(1H)-yl](6,7-dihydro-4H-thieno[3,2-c]pyran-2-yl)methanone]
1 nM | 5 nM | Cc1ccc(C(=O)N2C[C@@H]3CC[C@@H](Nc4ccc(Cl)nn4)[C@@H]3C2)s1 [Example 1-2, {(3aS,4R,6aR)-4-[(6-Chloro-3-pyridazinyl)amino]hexahydrocyclopenta[c]pyrrol-2(1H)-yl}(5-methyl-2-thienyl)methanone]
1 nM | 1 nM | O=C(c1cc2c(s1)CCOC2)N1C[C@@H]2CC[C@@H](Nc3ccc(Cl)nn3)[C@]2(F)C1 [Example 12, {(3aR,4R,6aS)-4-[(6-Chloro-3-pyridazinyl)amino]-3a-fluorohexahydrocyclopenta[c]pyrrol-2(1H)-yl}(6,7-dihydro-4H-thieno[3,2-c]pyran-2-yl)methanone]
1 nM | 1 nM | O=C(c1cc2c(s1)CCOC2)N1C[C@@H]2CC3(CC3)[C@@H](Nc3ccc(Br)nn3)[C@@H]2C1 [Example 15, [(3aS, 4S, 6aR)-4-[(6-Bromopyridazin-3-yl)amino]spiro[1,3,3a,4,6,6a-hexahydrocyclopenta[c]pyrrole-5,1′-cyclopropan]-2-yl]-(6,7-dihydro-4H-thieno[3,2-c]pyran-2-yl)methanone]
– | 25 nM | CN(C)c1ncc(C(=O)N2C[C@@H]3CC[C@@H](Nc4ccc(Br)nn4)[C@@H]3C2)s1 [Example 2-6, [(3aS,4R,6aR)-4-[(6-Bromo-3-pyridazinyl)amino]hexahydrocyclopenta[c]pyrrol-2(1H)-yl][2-(dimethylamino)-1,3-thiazol-5-yl]methanone]
1 nM | 2 nM | O=C(c1cc2c(s1)CCOC2)N1C[C@@H]2CC[C@@H](Nc3ccc(Cl)nn3)[C@@H]2C1 [Example 1-4, [(3aS,4R,6aR)-4-[(6-Chloro-3-pyridazinyl)amino]hexahydrocyclopenta[c]pyrrol-2(1H)-yl](6,7-dihydro-4H-thieno[3,2-c]pyran-2-yl)methanone]
1 nM | 2 nM | O=C(c1cc2nn(C3CC3)cc2s1)N1C[C@@H]2CC[C@@H](Nc3ccc(Br)nn3)[C@@H]2C1 [Example 3-10, [(3aS,4R,6aR)-4-[(6-Bromo-3-pyridazinyl)amino]hexahydrocyclopenta[c]pyrrol-2(1H)-yl](2-cyclopropyl-2H-thieno[3,2-c]pyrazol-5-yl)methanone]
2 nM | 8 nM | Cc1ccc(C(=O)N2C[C@@H]3CC[C@@H](Nc4nnc(Cl)cc4C#N)[C@@H]3C2)s1 (relative stereo) [Example 9, rel-6-Chloro-3-({(3aS,4R,6aR)-2-[(5-methyl-2-thienyl)carbonyl]octahydrocyclopenta[c]pyrrol-4-yl}amino)-4-pyridazinecarbonitrile]
< 1 nM | 2 nM | Cc1ccc(C(=O)N2C[C@@H]3CC[C@@H](Nc4ccc(Br)nn4)[C@]3(F)C2)s1 [Example 10, [(3aR,4R,6aS)-4-[(6-Bromopyridazin-3-yl)amino]-3a-fluoro-1.3.4.5.6.6a-hexahydrocyclopenta[c]pyrrol-2-yl]-(5-methyl-2-thienyl)methanone]
1 nM | 1 nM | Cc1ccc(C(=O)N2C[C@@H]3CC[C@@H](N(Cc4ccccc4)c4ccc(Br)nn4)[C@@H]3C2)s1 [Example 6-2, [(3aS,4R,6aR)-4-[Benzyl(6-bromo-3-pyridazinyl)amino]hexahydrocyclopenta[c]pyrrol-2(1H)-yl](5-methyl-2-thienyl)methanone]
1 nM | 3 nM | O=C(c1cc2c(s1)CCOC2)N1C[C@@H]2CC[C@@H](Nc3ccc(Br)nn3)[C@@H]2C1 [Example 2-1, [(3aS,4R,6aR)-4-[(6-Bromo-3-pyridazinyl)amino]hexahydrocyclopenta[c]pyrrol-2(1H)-yl](6,7-dihydro-4H-thieno[3,2-c]pyran-2-yl)methanone]
2 nM | 6 nM | O=C(c1cc2nn3c(c2s1)CCC3)N1C[C@@H]2CC[C@@H](Nc3ccc(Br)nn3)[C@@H]2C1 [Example 3-6, [(3aS,4R,6aR)-4-[(6-Bromo-3-pyridazinyl)amino]hexahydrocyclopenta[c]pyrrol-2(1H)-yl](7,8-dihydro-6H-pyrrolo[1,2-b]thieno[2,3-d]pyrazol-2-yl)methanone]
1 nM | 5 nM | Cc1ccc(C(=O)N2C[C@@H]3CC[C@@H](n4ccc5cc(Cl)nnc54)[C@@H]3C2)s1 (racemic) [Example 8-1, rel-[(3aS,4R,6aR)-4-(3-Chloro-7H-pyrrolo[2,3-c]pyridazin-7-yl)hexahydrocyclopenta[c]pyrrol-2(1H)-yl](5-methyl-2-thienyl)methanone]
